Reference: ChEMBL document CHEMBL1201862, “PubChem BioAssay data set” (2004)
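Where inhibition never reached the appropriate level, the endpoint shown equals the highest concentration tested. Otherwise, values were interpolated linearly from a five-concentration, 48-hour dose response in 96-well plates. Here, GI50 denotes the concentration required for 50% inhibition of growth.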 Active and inactive are the calls of the source. No stated cut-off is given here; in the data, active = GI50 up to about 1.1 µM and inactive = higher.

Tests used:
Assay in all cases: inhibition of tumour cell growth, NCI panel, 48 h
CAKI-1 = tested on: CAKI-1
CCRF-CEM = tested on: CCRF-CEM
COLO 205 = tested on: COLO 205
EKVX = tested on: EKVX
HCT-116 = tested on: HCT-116
HOP-92 = tested on: HOP-92
HT-29 = tested on: HT-29
MCF7 = tested on: MCF7
MOLT-4 = tested on: MOLT-4
NCI-H226 = tested on: NCI-H226
NCI-H522 = tested on: NCI-H522
NCI/ADR-RES = tested on: NCI/ADR-RES
RPMI-8226 = tested on: RPMI-8226
RXF 393 = tested on: RXF 393
SF-268 = tested on: SF-268
SF-539 = tested on: SF-539
SK-MEL-28 = tested on: SK-MEL-28
SK-MEL-2 = tested on: SK-MEL-2
SR = tested on: SR
SNB-78 = tested on: SNB-78

SMILES	GI50 (CAKI-1)	GI50 (CCRF-CEM)	GI50 (COLO 205)	GI50 (EKVX)	GI50 (HCT-116)	GI50 (HOP-92)	GI50 (HT-29)	GI50 (MCF7)	GI50 (MOLT-4)	GI50 (NCI-H226)	GI50 (NCI-H522)	GI50 (NCI/ADR-RES)	GI50 (RPMI-8226)	GI50 (RXF 393)	GI50 (SF-268)	GI50 (SF-539)	GI50 (SK-MEL-28)	GI50 (SK-MEL-2)	GI50 (SR)	GI50 (SNB-78)
CC1(C)CCC(C)(C)c2c1ccc(O)c2Cc1c(O)ccc2c1C(C)(C)CCC2(C)C	2.15 µM (inactive)	2.31 µM (inactive)	2.13 µM (inactive)	2.93 µM (inactive)	2 µM (inactive)	1.95 µM (inactive)	2.19 µM (inactive)	1.84 µM (inactive)	2.11 µM (inactive)	1.88 µM (inactive)	1.97 µM (inactive)	2.08 µM (inactive)	1.87 µM (inactive)	1.87 µM (inactive)	2.47 µM (inactive)	1.99 µM (inactive)	2.12 µM (inactive)	1.65 µM (inactive)	2.7 µM (inactive)	
C=CS(=O)(=O)c1c2cc(OC)ccc2nc2ccc(OC)cc12	4.22 µM (inactive)	3.22 µM (inactive)	4.34 µM (inactive)	8.32 µM (inactive)	2.11 µM (inactive)	5.33 µM (inactive)	2.54 µM (inactive)	2.94 µM (inactive)	2.32 µM (inactive)	15.6 µM (inactive)	1.73 µM (inactive)	10.4 µM (inactive)	2.37 µM (inactive)	3.99 µM (inactive)	8.57 µM (inactive)	2.51 µM (inactive)	7.98 µM (inactive)	19 µM (inactive)	2.32 µM (inactive)	
Clc1nc(Cl)nc(Nc2cccc3ccccc23)n1	> 10 µM (inactive)	> 10 µM (inactive)	> 10 µM (inactive)	> 10 µM (inactive)	> 10 µM (inactive)		> 10 µM (inactive)	> 10 µM (inactive)	> 10 µM (inactive)	> 10 µM (inactive)	> 10 µM (inactive)	> 10 µM (inactive)	> 10 µM (inactive)	> 10 µM (inactive)	> 10 µM (inactive)	> 10 µM (inactive)	> 10 µM (inactive)	> 10 µM (inactive)	> 10 µM (inactive)	
COC(=O)c1c(O)ccc2c1c1c(n2Cc2cccc(C)c2)C(=O)c2ccccc2C1	8.75 µM (inactive)	12.4 µM (inactive)	12.1 µM (inactive)	0.0931 µM (active)	7.85 µM (inactive)	42.6 µM (inactive)	10.3 µM (inactive)	27.9 µM (inactive)	17.1 µM (inactive)	19.7 µM (inactive)		15.5 µM (inactive)	12 µM (inactive)	11.9 µM (inactive)	28 µM (inactive)	17.1 µM (inactive)	0.295 µM (active)	45 µM (inactive)	13.7 µM (inactive)	
COc1ccc(C(=O)Cc2ccc(Cl)cc2)cc1OC	> 100 µM (inactive)	> 100 µM (inactive)		> 100 µM (inactive)	> 100 µM (inactive)		> 100 µM (inactive)		> 100 µM (inactive)	> 100 µM (inactive)	64.9 µM (inactive)		> 100 µM (inactive)	> 100 µM (inactive)	> 100 µM (inactive)	> 100 µM (inactive)		> 100 µM (inactive)	> 100 µM (inactive)	> 100 µM (inactive)
COc1cc(C2c3cc4c(cc3OC3(O)COC(=O)C23)OCO4)cc(OC)c1OC (stereo not drawn)	51.3 µM (inactive)	34.7 µM (inactive)		78.3 µM (inactive)	51.1 µM (inactive)		33.2 µM (inactive)		42.6 µM (inactive)	32.6 µM (inactive)	22.7 µM (inactive)		58.2 µM (inactive)	31.3 µM (inactive)	85.3 µM (inactive)	28.8 µM (inactive)		> 100 µM (inactive)	16.7 µM (inactive)	> 100 µM (inactive)
Cc1cc(Cl)ccc1NC1=NC(=O)C(CC(=O)Nc2cccc(Cl)c2)S1 (stereo not drawn)	8.79 µM (inactive)	22.6 µM (inactive)	72.1 µM (inactive)	> 100 µM (inactive)	24.2 µM (inactive)	14.2 µM (inactive)	20.5 µM (inactive)			> 100 µM (inactive)	26.5 µM (inactive)			12.1 µM (inactive)	46.9 µM (inactive)	77.6 µM (inactive)	> 100 µM (inactive)	37.8 µM (inactive)		> 100 µM (inactive)
C=CCOC1=C(OCC=C)C(C2COC(C)(C)O2)OC1=O (stereo not drawn)	18.7 µM (inactive)	29.4 µM (inactive)	> 100 µM (inactive)	> 100 µM (inactive)	> 100 µM (inactive)	14.8 µM (inactive)	> 100 µM (inactive)	> 100 µM (inactive)	> 100 µM (inactive)	> 100 µM (inactive)	22.1 µM (inactive)	> 100 µM (inactive)	45.9 µM (inactive)	> 100 µM (inactive)	> 100 µM (inactive)	> 100 µM (inactive)	> 100 µM (inactive)	> 100 µM (inactive)	98.2 µM (inactive)	
